This note sets out measurements from US20260077051A1, “COMPOUNDS FOR THE DEGRADATION OF EGFR KINASE” (BeOne Medicines I GmbH, priority 2023, published 2026).

Assay [1] concerns the target T1, EGFR L858R (BaF3-L858R cells) (Homo sapiens, UniProt P00533, L858R).
T1 construct: host or cells: BaF3
The assay is described as follows: EGFR degradation in BaF3-L858R cells (HTRF assay). The note with it: 16 h treatment; for DC50: IC50(DC50) of EGFR degradation; for Dmax: maximum percentage of inhibition (degradation). In kind it is cell-based. Here is the method:
BaF3-L858R (abbv. L858R) cell were purchased from Kangyuan Bochuang Biotechnology (Beijing) Co., Ltd.
(§1) H1975-#8 and BaF3-L858R cells are treated with compounds diluted in 0.1% DMSO cell culture medium on day 2, incubate for 16 h, 37° C., 5% CO2. the final concentration of compounds in all assay is start with 10 uM, 5-fold dilution, total 8 doses were included.
(§2) After 16 h treatment, for H1975-#8 cells, add 100 ul HTRF 1× lysis buffer to each well; for BaF3-L858R cells, add 20 μl 4× lysis buffer to each well; seal the plate and incubate 1 hour at room temperature on a plate shaker; Once the cells are lysed, 16 μL of cell lysate are transferred to a PE 384-well HTRF detection plate; 4 μL of pre-mixed HTRF antibodies are added to each well; Cover the plate with a plate sealer, spin 1000 rpm for 1 min, Incubate overnight at room temperature; Read on BMG PheraStar with HTRF protocol (337 nm-665 nm-620 nm).
(§3) The inhibition (degradation) percentage of the compound was calculated by the following equation:
(§4) High control=Cell group with added DMSO and without compound, indicating microplate readings without EGFR degradation;
(§5) Dmax is the maximum percentage of inhibition (degradation).
(§6) The IC50(DC50) value of a compound can be obtained by fitting the following equation
(§7) Wherein, X and Y are known values, and IC50, Hillslope, Top and Bottom are the parameters obtained by fitting with software. Y is the inhibition percentage (calculated from the equation), X is the concentration of the compound; IC50 is the concentration of the compound when the 50% inhibition is reached. The smaller the IC50 value is, the stronger the inhibitory ability of the compound is. Vice versa, the higher the IC50 value is, the weaker the ability the inhibitory ability of the compound is; Hillslope represents the slope of the fitted curve, generally around 1*; Bottom represents the minimum value of the curve obtained by data fitting, which is generally 0%±20%; Top represents the maximum value of the curve obtained by data fitting, which is generally 100%±20%. The experimental data were fitted by calculating and analyzing with Dotmatics data analysis software.

In assay [2] the target is T2, EGFR-L858R/C797S (H1975-clone #8 cells) (Homo sapiens, UniProt P00533, C797S/L858R).
T2 construct: expressed in transfected cells; host or cells: H1975 (lentiviral transduction, endogenous EGFR knocked out, single clone #8)
T2 sequence (P00533 25-1210 C797S/L858R): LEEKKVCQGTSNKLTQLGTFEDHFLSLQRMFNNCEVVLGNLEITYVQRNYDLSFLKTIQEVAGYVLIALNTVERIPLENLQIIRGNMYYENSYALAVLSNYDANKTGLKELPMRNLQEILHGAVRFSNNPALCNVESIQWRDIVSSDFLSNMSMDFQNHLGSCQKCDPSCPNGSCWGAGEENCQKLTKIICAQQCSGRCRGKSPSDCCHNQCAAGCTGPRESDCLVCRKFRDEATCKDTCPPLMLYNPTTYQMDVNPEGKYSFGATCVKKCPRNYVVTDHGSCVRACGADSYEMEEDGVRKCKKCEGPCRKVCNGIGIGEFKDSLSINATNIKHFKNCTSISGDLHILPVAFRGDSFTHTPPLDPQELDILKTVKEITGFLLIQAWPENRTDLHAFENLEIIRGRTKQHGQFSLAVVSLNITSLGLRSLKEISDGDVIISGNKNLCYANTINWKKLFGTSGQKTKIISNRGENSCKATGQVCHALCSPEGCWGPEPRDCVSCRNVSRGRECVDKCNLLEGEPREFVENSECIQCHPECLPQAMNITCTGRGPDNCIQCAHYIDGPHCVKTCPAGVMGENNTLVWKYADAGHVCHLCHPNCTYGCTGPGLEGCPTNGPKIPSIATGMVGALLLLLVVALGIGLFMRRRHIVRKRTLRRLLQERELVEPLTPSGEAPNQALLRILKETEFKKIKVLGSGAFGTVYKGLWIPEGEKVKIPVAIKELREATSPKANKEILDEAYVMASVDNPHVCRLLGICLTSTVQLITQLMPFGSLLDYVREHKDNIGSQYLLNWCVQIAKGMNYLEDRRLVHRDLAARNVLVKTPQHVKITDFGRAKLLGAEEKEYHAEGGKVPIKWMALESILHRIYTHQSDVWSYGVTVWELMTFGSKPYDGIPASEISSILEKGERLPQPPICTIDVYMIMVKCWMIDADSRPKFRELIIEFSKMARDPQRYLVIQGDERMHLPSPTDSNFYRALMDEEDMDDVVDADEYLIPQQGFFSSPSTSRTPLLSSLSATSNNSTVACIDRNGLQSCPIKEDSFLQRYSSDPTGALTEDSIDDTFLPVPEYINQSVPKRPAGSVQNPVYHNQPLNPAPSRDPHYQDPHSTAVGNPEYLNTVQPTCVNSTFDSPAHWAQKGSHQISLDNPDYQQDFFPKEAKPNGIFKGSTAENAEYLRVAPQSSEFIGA
The assay is described as follows: EGFR degradation in H1975-clone#8 (L858R/C797S) cells (HTRF assay). The assay is classed as cell-based. The note with it: 16 h treatment; for DC50: IC50(DC50) of EGFR degradation; for Dmax: maximum percentage of inhibition (degradation). How it is done: H1975-clone #8 (L858R/C797S): EGFR-L858R/C797S were stably expressed in H1975 cell lines by lentivirus-mediated over-expression, respectively. The EGFR over-expressed cells then underwent knockout, in which the EGFR targeting sgRNA was designed to only target the endogenous EGFR copies and preserve the exogenous EGFR copies. Followed by the knockout, the edited H1975 cells were seeded in 96 well plates at the concentration of […], cultured for about 2 weeks to allow single clones formation. The formed clones were screened by DNA sequencing and whole exon sequencing analysis for the desired edition. H1975-clone #8 were finally confirmed as homozygous L858R/C797S EGFR clones.
as §1, §2, §3, §4, §5, §6, §7

T1 sequence (P00533 25-1210 L858R): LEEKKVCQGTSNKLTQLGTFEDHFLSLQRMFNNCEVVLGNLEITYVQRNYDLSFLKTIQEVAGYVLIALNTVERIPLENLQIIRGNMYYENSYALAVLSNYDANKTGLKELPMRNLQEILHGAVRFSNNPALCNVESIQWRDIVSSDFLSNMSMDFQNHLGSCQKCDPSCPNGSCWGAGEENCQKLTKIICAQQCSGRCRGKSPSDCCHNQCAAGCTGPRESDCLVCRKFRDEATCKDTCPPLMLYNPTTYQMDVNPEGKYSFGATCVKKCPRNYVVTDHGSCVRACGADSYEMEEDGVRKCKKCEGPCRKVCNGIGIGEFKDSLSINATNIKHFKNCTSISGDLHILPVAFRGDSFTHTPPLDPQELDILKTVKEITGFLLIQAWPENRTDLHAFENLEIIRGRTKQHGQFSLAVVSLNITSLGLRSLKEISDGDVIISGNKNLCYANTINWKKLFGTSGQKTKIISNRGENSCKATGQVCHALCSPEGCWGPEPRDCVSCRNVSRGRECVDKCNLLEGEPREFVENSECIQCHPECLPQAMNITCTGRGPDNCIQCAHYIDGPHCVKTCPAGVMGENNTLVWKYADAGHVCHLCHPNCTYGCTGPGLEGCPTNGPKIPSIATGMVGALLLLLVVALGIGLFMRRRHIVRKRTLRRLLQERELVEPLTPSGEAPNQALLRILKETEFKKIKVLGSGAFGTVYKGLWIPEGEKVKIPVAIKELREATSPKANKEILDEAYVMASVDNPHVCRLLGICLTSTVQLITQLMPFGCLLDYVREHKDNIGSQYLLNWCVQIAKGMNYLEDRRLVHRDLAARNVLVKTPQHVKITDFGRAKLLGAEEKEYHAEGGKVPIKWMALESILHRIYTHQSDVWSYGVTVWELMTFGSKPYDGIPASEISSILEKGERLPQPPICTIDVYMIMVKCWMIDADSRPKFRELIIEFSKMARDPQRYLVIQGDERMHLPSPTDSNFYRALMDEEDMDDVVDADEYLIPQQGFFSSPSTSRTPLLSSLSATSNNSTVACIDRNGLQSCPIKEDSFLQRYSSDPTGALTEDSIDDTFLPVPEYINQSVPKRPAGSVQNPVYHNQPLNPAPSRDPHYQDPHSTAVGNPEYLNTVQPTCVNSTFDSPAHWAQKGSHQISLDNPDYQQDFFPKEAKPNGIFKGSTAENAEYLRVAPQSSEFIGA

Turning to `Cc1cc2cc(n1)-c1cnn(C)c1OCC[C@H]1C[C@@H]1CN1/C(=N/C2=O)Nc2ccc(N3CCN(CCc4c(C)cc(C5CCC(=O)NC5=O)nc4C)CC3)cc21` (stereo partly shown) [Example 21, 3-(5-(2-(4-((7^1S,7^2R,E)-1^1,2^6-dimethyl-3-oxo-5^2,5^3-dihydro-1^1H,5^1H-10-oxa-4-aza-5 (2,1)-benzo[d]imidazola-2 (2,4)-pyridina-1 (4,5)-pyrazola-7 (1,2)-cyclopropanacyclodecaphane-5^6-yl)piperazin-1-yl)ethyl)-4,6-dimethylpyridin-2-yl)piperidine-2,6-dione], in assay [1], half-maximal degradation (DC50) was put at 1.65 nM and the Dmax was 82.8%. In assay [2], the DC50 was found to be 19.3 nM and the Dmax was 40.2%.

As to `Cc1cc2cc(n1)-c1cnn(C)c1OCC[C@]1(C)C[C@H]1CN1/C(=N/C2=O)Nc2ccc(N3CCN(C4CCN(c5cc(F)c(C6CCC(=O)NC6=O)nc5C)CC4)CC3)cc21` (stereo partly shown) [Example 54, 3-(3-fluoro-6-methyl-5-(4-(4-((7^1R,7^2S,E)-1^1,2^6,7^2-trimethyl-3-oxo-5^2,5^3-dihydro-1^1H,5^1H-10-oxa-4-aza-5 (2,1)-benzo[d]imidazola-2 (2,4)-pyridina-1 (4,5)-pyrazola-7 (1,2)-cyclopropanacyclodecaphane-5^6-yl)piperazin-1-yl)piperidin-1-yl)pyridin-2-yl)piperidine-2,6-dione], in assay [1], half-maximal degradation (DC50) was put at 3.35 nM and the Dmax was 91.9%. Further, in assay [2], the DC50 was 2.11 nM and the Dmax came out at 77.7%.

As to `Cc1cc2cc(n1)-c1cnn(C)c1OCC[C@H]1C[C@@H]1CN1/C(=N/C2=O)Nc2ccc(N3CCN(C4CN(C5CCN(c6c(C)cc(C7CCC(=O)NC7=O)nc6C)CC5)C4)C[C@@H]3C)cc21` (stereo partly drawn) [Example 22, 3-(5-(4-(3-((S)-4-((7^1S,7^2R,E)-1^1,2^6-dimethyl-3-oxo-5^2,5^3-dihydro-1^1H,5^1H-10-oxa-4-aza-5 (2,1)-benzo[d]imidazola-2 (2,4)-pyridina-1 (4,5)-pyrazola-7 (1,2)-cyclopropanacyclodecaphane-5^6-yl)-3-methylpiperazin-1-yl)azetidin-1-yl)piperidin-1-yl)-4,6-dimethylpyridin-2-yl)piperidine-2,6-dione], the DC50 was 3.97 nM in assay [1] and 2.83 nM in assay [2]. Also, the values for the Dmax in assay [1] and in assay [2] were 83.2% and 67.9%, respectively.

Turning to `Cc1cc2cc(n1)-c1cnn(C)c1OCC[C@H]1C[C@@H]1CN1/C(=N/C2=O)Nc2ccc(N3CCC(N4CC5CCC(C4)N5c4ccc(C5CCC(=O)NC5=O)nc4C)CC3)cc21` (stereo partly shown) [Example 4, 3-(5-(3-(1-((7^1S,7^2R,E)-1^1,2^6-dimethyl-3-oxo-5^2,5^3-dihydro-1^1H,5^1H-10-oxa-4-aza-5 (2,1)-benzo[d]imidazola-2 (2,4)-pyridina-1 (4,5)-pyrazola-7 (1,2)-cyclopropanacyclodecaphane-5^6-yl)piperidin-4-yl)-3,8-diazabicyclo[3.2.1]octan-8-yl)-6-methylpyridin-2-yl)piperidine-2,6-dione], in assay [1], the DC50 came out at 52.5 nM and the maximal degradation (Dmax) was 63.6%.

On to `Cc1cc2cc(n1)-c1cnn(C)c1OCC[C@H]1C[C@@H]1CN1/C(=N/C2=O)Nc2ccc(N3CCC(N4CC5CCC4CN5c4ccc(C5CCC(=O)NC5=O)nc4C)CC3)cc21` (stereo partly shown) [Example 5, 3-(5-(5-(1-((7^1S,7^2R,E)-1^1,2^6-dimethyl-3-oxo-5^2,5^3-dihydro-1^1H,5^1H-10-oxa-4-aza-5 (2,1)-benzo[d]imidazola-2 (2,4)-pyridina-1 (4,5)-pyrazola-7 (1,2)-cyclopropanacyclodecaphane-5^6-yl)piperidin-4-yl)-2,5-diazabicyclo[2.2.2]octan-2-yl)-6-methylpyridin-2-yl)piperidine-2,6-dione], for which, in assay [1], the DC50 came to 72.2 nM and the Dmax stood at 70.3%.

As for `Cc1cc2cc(n1)-c1cnn(C)c1OCC[C@H]1C[C@@H]1CN1/C(=N/C2=O)Nc2ccc(N3CCN([C@@H]4CCN(c5cnc(C6CCC(=O)NC6=O)cc5C)C[C@@H]4F)CC3)cc21` (stereo partly drawn) [Example 12, 3-(5-((3S,4R)-4-(4-((7^1S,7^2R,E)-1^1,2^6-dimethyl-3-oxo-5^2,5^3-dihydro-1^1H,5^1H-10-oxa-4-aza-5 (2,1)-benzo[d]imidazola-2 (2,4)-pyridina-1 (4,5)-pyrazola-7 (1,2)-cyclopropanacyclodecaphane-5^6-yl)piperazin-1-yl)-3-fluoropiperidin-1-yl)-4-methylpyridin-2-yl)piperidine-2,6-dione], in assay [1], half-maximal degradation (DC50) was put at 18.4 nM and the Dmax was found to be 73.6%. In assay [2], this compound yielded a DC50 of 16 nM and a Dmax of 54.4%.

As for `Cc1cc2cc(n1)-c1cnn(C)c1OCC[C@H]1C[C@@H]1CN1/C(=N/C2=O)Nc2ccc(N3CCN(CC4CN(c5ccc6c(c5)C(C)(C)C(=O)N6C5CCC(=O)NC5=O)C4)CC3)cc21` (stereo partly shown) [Example 13, 3-(5-(3-((4-((7^1S,7^2R,E)-1^1,2^6-dimethyl-3-oxo-5^2,5^3-dihydro-1^1H,5^1H-10-oxa-4-aza-5 (2,1)-benzo[d]imidazola-2 (2,4)-pyridina-1 (4,5)-pyrazola-7 (1,2)-cyclopropanacyclodecaphane-5^6-yl)piperazin-1-yl)methyl)azetidin-1-yl)-3,3-dimethyl-2-oxoindolin-1-yl)piperidine-2,6-dione], in assay [1], the DC50 is 8.09 nM and the Dmax is 82.2%.

For the compound `Cc1cc2cc(n1)-c1cnn(C)c1OCC[C@H]1C[C@@H]1CN1/C(=N/C2=O)Nc2ccc(N3CCN(C[C@@H]4CCN(c5ccc(C6CCC(=O)NC6=O)nc5C)C4)CC3)cc21` (stereo partly drawn) [Example 9, 3-(5-((S)-3-((4-((7^1S,7^2R,E)-1^1,2^6-dimethyl-3-oxo-5^2,5^3-dihydro-1^1H,5^1H-10-oxa-4-aza-5 (2,1)-benzo[d]imidazola-2 (2,4)-pyridina-1 (4,5)-pyrazola-7 (1,2)-cyclopropanacyclodecaphane-5^6-yl)piperazin-1-yl)methyl)pyrrolidin-1-yl)-6-methylpyridin-2-yl)piperidine-2,6-dione], in assay [1], it took 85.4 nM to reach half-maximal degradation (DC50) and the Dmax came to 74.9%.

As for `Cc1cc2cc(n1)-c1cnn(C)c1OCC[C@H]1C[C@@H]1CN1/C(=N/C2=O)Nc2ccc(N3CC4CCC3CN4C3CCN(c4ccc(C5CCC(=O)NC5=O)nc4C)CC3)cc21` (stereo partly shown) [Example 6, 3-(5-(4-(5-((7^1S,7^2R,E)-1^1,2^6-dimethyl-3-oxo-5^2,5^3-dihydro-1^1H,5^1H-10-oxa-4-aza-5 (2,1)-benzo[d]imidazola-2 (2,4)-pyridina-1 (4,5)-pyrazola-7 (1,2)-cyclopropanacyclodecaphane-5^6-yl)-2,5-diazabicyclo[2.2.2]octan-2-yl)piperidin-1-yl)-6-methylpyridin-2-yl)piperidine-2,6-dione], in assay [1], half-maximal degradation (DC50) was put at 17.1 nM and the Dmax is 82.2%.

In assay [1], `Cc1cc2cc(n1)-c1cnn(C)c1OCC[C@H]1C[C@@H]1CN1/C(=N/C2=O)Nc2ccc(NC3CN(C4CCN(c5cnc(C6CCC(=O)NC6=O)cc5C)CC4)C3)cc21` (stereo partly shown) [Example 1, 3-(5-(4-(3-(((7^1S,7^2R,E)-1^1,2^6-dimethyl-3-oxo-5^2,5^3-dihydro-1^1H,5^1H-10-oxa-4-aza-5 (2,1)-benzo[d]imidazola-2 (2,4)-pyridina-1 (4,5)-pyrazola-7 (1,2)-cyclopropanacyclodecaphane-5^6-yl)amino)azetidin-1-yl)piperidin-1-yl)-4-methylpyridin-2-yl)piperidine-2,6-dione] yielded a 50% degradation concentration (DC50) of 15.7 nM and a Dmax of 68.4%.

What is called DC50 is the midpoint of the concentration-degradation curve. Higher therefore signals degradation only at high concentration. For orientation: Dmax means the largest share of the target that was removed. A low value points to a partial loss of target.
